Assay results published in patent US5019505A, “Enzymes having alpha-glycerol-3-phosphate oxidase activity, production and use thereof” (GEnzyme (U.K.) Ltd., priority 1986, dated 1991).
Where “and” joins values, the source holds several entries; their conditions need not be identical. Equal entries are not always repeated. Where two headings read alike, the source gives them in different places.

How the values were obtained:
[1] = system: α-GPO from P. freudenreichii subsp. shermanii (formerly P. shermanii) (NCIMB 9885); test: α-GPO assay (Trinder-type H2O2 colour reaction); assay type: biochemical, P. freudenreichii subsp. shermanii (NCIMB 9885); conditions: cell-free extract, read-out: Km of the α-GPO for L-α-glycerol-3-phosphate
Experimental: (§1) Freeze-dried cultures of `P. acidi-propionici`(formerly `arabinosum`) NCIMB 5958) and `P. freudenreichii` subsp. `shermanii`(formerly `P. shermanii`) (NCIMB 9885) were obtained from the National Collection of Industrial and Marine Bacteria, Torry Research Station, Aberdeen, Scotland. The organisms were grown in a similar manner to that described above for `P. freudenreichii` subsp. `freudenriechii` (DSM 20270). The microorganisms were harvested, disrupted and assayed for α-GPO again in a similar way to `P. `freudenreichii` subsp. `freudenreichii` (DSM 20270).

[2] = system: α-GPO from P. freudenreichii subsp. freudenreichii (NCIMB 5959); test: α-GPO assay (Trinder-type H2O2 colour reaction); assay type: biochemical; conditions: read-out: Km for L-α-glycerol-3-phosphate
[3] = system: α-glycerol-3-phosphate oxidase (α-GPO) from Propionibacterium freudenreichii subsp. freudenreichii (DSM 20270); test: α-GPO assay (Trinder-type H2O2 colour reaction, 505nm, 37° C.); assay type: biochemical
Experimental: Aliquots of the resulting supernatant containing partially purified α-GPO were used in the following test system: […]
L-α-glycerol-3-phosphate
4-amino-antipyrine 1.5 mM
Dimethylglutarate buffer (DMG; pH 7.5)
The rate of change of absorbance was measured at 505nm, 37° C. in a spectrophotometer.

[4] = system: α-GPO from P. acidi-propionici (formerly arabinosum) (NCIMB 5958); test: α-GPO assay (Trinder-type H2O2 colour reaction); assay type: biochemical, P. acidi-propionici (NCIMB 5958); conditions: cell-free extract, read-out: Km of the α-GPO for L-α-glycerol-3-phosphate
Experimental: as §1

[5] = system: α-GPO from P. freudenreichii subsp. shermanii (NCIMB 5964); test: α-GPO assay (Trinder-type H2O2 colour reaction); assay type: biochemical; conditions: read-out: Km for L-α-glycerol-3-phosphate
[6] = system: previously described examples of α-GPO; conditions: prior art enzymes; read-out: Km values for L-α-glycerol-3-phosphate; cited from earlier work
[7] = listed as L-α0glycerol-3-phosphate

For `O=P(O)(O)OC[C@H](O)CO` [L-α-glycerol-3-phosphate], the Km [1, 7] was 22 µM, the Km [1] was ~22 µM and the Km [2] was 26 µM and ~26 µM. For the same compound, the Km ([3]; characterisation of the preferred enzyme, read-out: Michaelis-Menten constant (Km) in respect of L-α-glycerol-3-phosphate) was 15 µM, the Km ([3]; high speed centrifugation supernatant, DMG pH 7.5, 37° C., 505nm, read-out: Km of the α-GPO for its substrate, L-α-glycerol-3-phosphate) was 15 µM and the Km ([3]; pooled active fractions after Sephadex G-200 gel filtration, read-out: Km of the α-GPO for its substrate L-α-glycerol-3-phosphate) was 15 µM. For the same compound, the Km ([3]; read-out: Km for L-α-glycerol-3-phosphate) was 15 µM and ~15 µM, the “fold lower Km value than previously described α-GPO” value ([3]; versus Km of 2.5mM or greater of previously described α-GPO) was 170 fold and the Km [4, 7] was 18 µM. The Km [4] was ~18 µM, the Km [5] was 6 µM and ~6 µM and the Km [6] was ≥ 2500 µM.
